How the values were obtained:
Details in all cases: PC-3
[1] = biological target: Focal adhesion kinase 1 (Homo sapiens) (UniProt Q05397); assay: Inhibition of FAK in human PC3 cell lysates at 10 uM using desthiobiotin-tagged ATP probe AX9989 followed by trypsinization by LC/MS analysis
[2] = biological target: T1, Serine/threonine-protein kinase 4 (Homo sapiens) (UniProt Q13043); assay: Inhibition of MST1 in human PC3 cell lysates at 10 uM using desthiobiotin-tagged ATP probe AX9989 followed by trypsinization by LC/MS analysis
T1 sequence (whole entry): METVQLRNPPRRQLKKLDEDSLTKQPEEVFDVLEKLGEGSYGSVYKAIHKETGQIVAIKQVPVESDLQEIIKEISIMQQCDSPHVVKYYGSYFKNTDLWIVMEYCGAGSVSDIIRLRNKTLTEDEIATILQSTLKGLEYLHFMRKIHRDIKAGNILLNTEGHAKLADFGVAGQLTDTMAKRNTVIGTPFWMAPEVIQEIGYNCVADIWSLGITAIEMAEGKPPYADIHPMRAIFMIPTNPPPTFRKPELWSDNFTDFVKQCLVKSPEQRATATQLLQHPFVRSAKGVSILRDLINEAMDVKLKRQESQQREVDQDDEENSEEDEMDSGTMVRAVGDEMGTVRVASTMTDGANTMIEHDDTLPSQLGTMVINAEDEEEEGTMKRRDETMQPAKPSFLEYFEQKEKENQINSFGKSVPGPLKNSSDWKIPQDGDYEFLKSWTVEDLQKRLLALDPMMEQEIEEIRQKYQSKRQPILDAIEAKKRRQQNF

[3] = biological target: T2, Mitogen-activated protein kinase kinase kinase 3 (Homo sapiens) (UniProt Q99759); assay: Inhibition of MAP3K3 in human PC3 cell lysates at 10 uM using desthiobiotin-tagged ATP probe AX9989 followed by trypsinization by LC/MS analysis
T2 sequence (whole entry): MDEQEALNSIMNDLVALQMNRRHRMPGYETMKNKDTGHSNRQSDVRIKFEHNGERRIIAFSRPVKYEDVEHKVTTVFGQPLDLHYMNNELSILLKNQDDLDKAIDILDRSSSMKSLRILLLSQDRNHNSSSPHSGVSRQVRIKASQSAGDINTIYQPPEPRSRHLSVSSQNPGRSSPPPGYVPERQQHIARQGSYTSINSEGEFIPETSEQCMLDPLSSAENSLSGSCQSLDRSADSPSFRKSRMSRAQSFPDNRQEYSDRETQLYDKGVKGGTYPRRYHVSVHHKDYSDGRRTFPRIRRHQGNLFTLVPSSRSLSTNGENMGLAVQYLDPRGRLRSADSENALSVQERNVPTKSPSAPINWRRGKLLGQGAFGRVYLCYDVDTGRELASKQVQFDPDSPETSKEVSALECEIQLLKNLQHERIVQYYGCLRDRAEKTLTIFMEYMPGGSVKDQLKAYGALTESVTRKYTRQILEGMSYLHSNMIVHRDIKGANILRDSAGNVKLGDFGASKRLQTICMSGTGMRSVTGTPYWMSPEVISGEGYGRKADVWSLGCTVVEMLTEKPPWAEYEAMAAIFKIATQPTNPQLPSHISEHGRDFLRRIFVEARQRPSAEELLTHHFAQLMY

[4] = biological target: Serine/threonine-protein kinase tousled-like 2 (Homo sapiens) (UniProt Q86UE8); assay: Inhibition of TLK2 in human PC3 cell lysates at 10 uM using desthiobiotin-tagged ATP probe AX9989 followed by trypsinization by LC/MS analysis
[5] = biological target: Microtubule-associated serine/threonine-protein kinase 3 (Homo sapiens, UniProt O60307); assay: Inhibition of MAST3 in human PC3 cell lysates at 10 uM using desthiobiotin-tagged ATP probe AX9989 followed by trypsinization by LC/MS analysis
[6] = biological target: Tyrosine-protein kinase Yes (Homo sapiens) (UniProt P07947); assay: Inhibition of YES in human PC3 cell lysates at 10 uM using desthiobiotin-tagged ATP probe AX9989 followed by trypsinization by LC/MS analysis
[7] = biological target: T3, Eukaryotic translation initiation factor 2-alpha kinase 3 (Homo sapiens) (UniProt Q9NZJ5); assay: Inhibition of PEK in human PC3 cell lysates at 10 uM using desthiobiotin-tagged ATP probe AX9989 followed by trypsinization by LC/MS analysis
T3 sequence (whole entry): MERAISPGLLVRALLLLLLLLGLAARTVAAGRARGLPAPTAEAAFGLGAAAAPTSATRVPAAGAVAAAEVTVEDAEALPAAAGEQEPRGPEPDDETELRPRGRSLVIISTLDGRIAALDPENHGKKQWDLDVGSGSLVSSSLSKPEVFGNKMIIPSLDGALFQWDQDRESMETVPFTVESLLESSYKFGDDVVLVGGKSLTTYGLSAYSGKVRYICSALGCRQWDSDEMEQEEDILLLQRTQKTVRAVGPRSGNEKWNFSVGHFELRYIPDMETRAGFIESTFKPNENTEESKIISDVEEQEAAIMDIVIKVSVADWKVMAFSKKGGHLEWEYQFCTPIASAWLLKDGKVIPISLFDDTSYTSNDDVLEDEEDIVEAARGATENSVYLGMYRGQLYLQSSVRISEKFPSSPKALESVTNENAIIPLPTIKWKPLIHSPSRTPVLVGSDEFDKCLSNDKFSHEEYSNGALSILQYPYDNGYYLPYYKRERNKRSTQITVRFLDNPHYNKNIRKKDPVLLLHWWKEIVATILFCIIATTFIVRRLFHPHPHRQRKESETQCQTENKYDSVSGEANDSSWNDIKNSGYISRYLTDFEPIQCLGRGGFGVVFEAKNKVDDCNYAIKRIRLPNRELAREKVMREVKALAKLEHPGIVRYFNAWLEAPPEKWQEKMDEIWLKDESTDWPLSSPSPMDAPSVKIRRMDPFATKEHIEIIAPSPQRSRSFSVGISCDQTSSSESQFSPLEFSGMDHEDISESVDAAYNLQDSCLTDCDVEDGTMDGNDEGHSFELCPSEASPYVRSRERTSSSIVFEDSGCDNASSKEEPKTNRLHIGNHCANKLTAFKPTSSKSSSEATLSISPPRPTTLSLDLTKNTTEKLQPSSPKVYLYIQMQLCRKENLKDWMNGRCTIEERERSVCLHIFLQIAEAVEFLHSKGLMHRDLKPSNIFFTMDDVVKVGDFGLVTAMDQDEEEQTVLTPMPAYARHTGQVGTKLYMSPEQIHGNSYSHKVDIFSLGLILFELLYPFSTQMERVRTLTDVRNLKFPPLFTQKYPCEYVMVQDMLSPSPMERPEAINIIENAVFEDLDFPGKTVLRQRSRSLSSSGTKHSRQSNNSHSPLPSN

[8] = biological target: Ephrin type-A receptor 2 (Homo sapiens) (UniProt P29317); assay: Inhibition of EphA2 in human PC3 cell lysates at 10 uM using desthiobiotin-tagged ATP probe AX9989 followed by trypsinization by LC/MS analysis
[9] = biological target: Mitogen-activated protein kinase 11 (Homo sapiens) (UniProt Q15759); assay: Inhibition of p38beta in human PC3 cell lysates at 10 uM using desthiobiotin-tagged ATP probe AX9989 followed by trypsinization by LC/MS analysis
Mitogen-activated protein kinase 11 (Homo sapiens), sequence (Q15759 whole entry): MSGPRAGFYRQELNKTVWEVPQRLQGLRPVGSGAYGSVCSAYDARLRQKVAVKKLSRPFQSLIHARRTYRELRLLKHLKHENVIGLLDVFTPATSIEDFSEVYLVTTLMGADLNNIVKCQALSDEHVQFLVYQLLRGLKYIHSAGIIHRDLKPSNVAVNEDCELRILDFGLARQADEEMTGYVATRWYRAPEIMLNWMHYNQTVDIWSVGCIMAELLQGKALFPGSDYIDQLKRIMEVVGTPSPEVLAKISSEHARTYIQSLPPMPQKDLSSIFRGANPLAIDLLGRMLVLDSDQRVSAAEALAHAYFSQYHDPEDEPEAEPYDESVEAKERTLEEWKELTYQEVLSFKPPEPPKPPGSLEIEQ

Ephrin type-A receptor 2 (Homo sapiens), sequence (P29317 whole entry): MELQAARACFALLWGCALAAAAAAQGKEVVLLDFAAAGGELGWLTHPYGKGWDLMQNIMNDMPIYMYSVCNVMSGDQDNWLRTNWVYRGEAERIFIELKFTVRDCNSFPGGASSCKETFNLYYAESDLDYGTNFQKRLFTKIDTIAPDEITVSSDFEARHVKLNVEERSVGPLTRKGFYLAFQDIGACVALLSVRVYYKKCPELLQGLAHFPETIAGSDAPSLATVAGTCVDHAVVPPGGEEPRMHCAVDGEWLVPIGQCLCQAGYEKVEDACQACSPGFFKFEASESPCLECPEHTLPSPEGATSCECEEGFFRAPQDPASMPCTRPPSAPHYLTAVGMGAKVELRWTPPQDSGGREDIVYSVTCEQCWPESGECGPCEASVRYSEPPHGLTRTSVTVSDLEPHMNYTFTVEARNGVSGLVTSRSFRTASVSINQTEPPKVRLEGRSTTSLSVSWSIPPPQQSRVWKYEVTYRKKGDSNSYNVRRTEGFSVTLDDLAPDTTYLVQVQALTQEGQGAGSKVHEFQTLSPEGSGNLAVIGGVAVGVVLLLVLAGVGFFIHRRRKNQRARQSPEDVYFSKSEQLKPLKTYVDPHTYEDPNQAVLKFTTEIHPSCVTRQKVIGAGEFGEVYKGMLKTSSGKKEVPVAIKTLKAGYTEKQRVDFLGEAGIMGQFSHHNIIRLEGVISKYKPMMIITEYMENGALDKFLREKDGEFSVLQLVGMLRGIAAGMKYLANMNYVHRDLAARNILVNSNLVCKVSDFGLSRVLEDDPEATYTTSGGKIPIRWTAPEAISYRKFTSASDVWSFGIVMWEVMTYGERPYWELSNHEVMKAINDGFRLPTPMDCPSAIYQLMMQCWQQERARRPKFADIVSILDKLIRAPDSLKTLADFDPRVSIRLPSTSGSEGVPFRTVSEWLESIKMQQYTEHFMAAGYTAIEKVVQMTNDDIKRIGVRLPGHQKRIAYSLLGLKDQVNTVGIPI
Tyrosine-protein kinase Yes (Homo sapiens), sequence (P07947 2-543 limits assumed): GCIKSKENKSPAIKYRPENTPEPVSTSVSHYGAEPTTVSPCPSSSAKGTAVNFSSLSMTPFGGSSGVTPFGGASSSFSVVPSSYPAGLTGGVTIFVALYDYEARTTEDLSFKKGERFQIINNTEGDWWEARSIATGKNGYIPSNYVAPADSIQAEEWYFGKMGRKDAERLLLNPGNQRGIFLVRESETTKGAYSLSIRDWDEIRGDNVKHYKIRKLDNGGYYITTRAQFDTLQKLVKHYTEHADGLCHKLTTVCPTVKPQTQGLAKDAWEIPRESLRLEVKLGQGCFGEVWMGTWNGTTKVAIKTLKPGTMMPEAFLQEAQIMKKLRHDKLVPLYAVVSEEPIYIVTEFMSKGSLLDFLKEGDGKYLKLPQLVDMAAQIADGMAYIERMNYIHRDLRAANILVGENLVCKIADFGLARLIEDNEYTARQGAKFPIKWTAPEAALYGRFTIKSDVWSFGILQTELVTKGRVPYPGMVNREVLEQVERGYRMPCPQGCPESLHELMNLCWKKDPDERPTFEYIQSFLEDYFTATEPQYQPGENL
Serine/threonine-protein kinase tousled-like 2 (Homo sapiens), sequence (Q86UE8 whole entry, looked up): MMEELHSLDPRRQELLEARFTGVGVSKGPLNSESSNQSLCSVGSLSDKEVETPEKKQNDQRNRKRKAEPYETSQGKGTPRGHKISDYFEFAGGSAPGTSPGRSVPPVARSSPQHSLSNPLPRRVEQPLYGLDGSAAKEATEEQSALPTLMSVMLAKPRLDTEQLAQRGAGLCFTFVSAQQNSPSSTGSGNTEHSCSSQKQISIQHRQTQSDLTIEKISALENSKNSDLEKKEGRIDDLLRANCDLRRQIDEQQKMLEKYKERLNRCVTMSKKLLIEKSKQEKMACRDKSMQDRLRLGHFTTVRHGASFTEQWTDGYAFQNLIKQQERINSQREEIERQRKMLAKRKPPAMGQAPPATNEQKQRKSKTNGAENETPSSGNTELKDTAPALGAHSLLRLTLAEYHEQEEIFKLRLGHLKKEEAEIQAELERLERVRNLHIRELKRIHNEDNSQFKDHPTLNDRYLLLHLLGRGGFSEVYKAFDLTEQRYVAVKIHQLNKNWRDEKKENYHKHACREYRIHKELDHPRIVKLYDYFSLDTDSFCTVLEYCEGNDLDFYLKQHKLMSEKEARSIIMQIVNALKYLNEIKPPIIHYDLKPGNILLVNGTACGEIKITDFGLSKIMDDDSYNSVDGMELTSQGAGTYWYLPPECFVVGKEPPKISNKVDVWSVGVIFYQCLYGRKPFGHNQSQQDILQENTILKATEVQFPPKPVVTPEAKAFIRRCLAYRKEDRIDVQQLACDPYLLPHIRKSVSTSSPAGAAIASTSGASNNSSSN
Focal adhesion kinase 1 (Homo sapiens), sequence (Q05397 2-1052 limits assumed): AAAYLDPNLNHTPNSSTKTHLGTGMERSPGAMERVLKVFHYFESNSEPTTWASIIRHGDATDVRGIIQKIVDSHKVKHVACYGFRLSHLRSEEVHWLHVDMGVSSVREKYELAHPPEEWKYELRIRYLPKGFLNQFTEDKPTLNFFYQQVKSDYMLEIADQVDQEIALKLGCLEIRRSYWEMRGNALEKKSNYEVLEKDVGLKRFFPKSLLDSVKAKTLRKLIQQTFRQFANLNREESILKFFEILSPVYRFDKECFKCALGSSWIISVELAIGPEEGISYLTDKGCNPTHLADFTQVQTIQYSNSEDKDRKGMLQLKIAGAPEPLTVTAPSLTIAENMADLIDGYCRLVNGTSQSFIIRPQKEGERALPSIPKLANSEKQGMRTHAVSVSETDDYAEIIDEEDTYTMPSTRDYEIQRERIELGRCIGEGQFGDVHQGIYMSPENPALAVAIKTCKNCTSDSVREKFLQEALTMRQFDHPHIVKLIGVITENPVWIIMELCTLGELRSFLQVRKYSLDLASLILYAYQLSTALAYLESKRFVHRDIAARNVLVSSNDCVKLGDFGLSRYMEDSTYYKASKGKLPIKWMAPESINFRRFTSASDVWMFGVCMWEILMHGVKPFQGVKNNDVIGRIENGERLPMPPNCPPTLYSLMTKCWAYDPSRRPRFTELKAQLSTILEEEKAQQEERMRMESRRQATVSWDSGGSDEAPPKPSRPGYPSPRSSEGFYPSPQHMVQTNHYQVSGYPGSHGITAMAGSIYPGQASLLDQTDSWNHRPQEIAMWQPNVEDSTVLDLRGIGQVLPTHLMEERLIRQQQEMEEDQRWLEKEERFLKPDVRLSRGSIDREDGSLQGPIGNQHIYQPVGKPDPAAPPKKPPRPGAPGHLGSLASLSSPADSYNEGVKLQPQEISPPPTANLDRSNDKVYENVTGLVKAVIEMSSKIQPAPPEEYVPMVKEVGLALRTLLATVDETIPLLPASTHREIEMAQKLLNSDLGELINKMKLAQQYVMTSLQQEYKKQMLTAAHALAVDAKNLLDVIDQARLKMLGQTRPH
Microtubule-associated serine/threonine-protein kinase 3, sequence (O60307 whole entry): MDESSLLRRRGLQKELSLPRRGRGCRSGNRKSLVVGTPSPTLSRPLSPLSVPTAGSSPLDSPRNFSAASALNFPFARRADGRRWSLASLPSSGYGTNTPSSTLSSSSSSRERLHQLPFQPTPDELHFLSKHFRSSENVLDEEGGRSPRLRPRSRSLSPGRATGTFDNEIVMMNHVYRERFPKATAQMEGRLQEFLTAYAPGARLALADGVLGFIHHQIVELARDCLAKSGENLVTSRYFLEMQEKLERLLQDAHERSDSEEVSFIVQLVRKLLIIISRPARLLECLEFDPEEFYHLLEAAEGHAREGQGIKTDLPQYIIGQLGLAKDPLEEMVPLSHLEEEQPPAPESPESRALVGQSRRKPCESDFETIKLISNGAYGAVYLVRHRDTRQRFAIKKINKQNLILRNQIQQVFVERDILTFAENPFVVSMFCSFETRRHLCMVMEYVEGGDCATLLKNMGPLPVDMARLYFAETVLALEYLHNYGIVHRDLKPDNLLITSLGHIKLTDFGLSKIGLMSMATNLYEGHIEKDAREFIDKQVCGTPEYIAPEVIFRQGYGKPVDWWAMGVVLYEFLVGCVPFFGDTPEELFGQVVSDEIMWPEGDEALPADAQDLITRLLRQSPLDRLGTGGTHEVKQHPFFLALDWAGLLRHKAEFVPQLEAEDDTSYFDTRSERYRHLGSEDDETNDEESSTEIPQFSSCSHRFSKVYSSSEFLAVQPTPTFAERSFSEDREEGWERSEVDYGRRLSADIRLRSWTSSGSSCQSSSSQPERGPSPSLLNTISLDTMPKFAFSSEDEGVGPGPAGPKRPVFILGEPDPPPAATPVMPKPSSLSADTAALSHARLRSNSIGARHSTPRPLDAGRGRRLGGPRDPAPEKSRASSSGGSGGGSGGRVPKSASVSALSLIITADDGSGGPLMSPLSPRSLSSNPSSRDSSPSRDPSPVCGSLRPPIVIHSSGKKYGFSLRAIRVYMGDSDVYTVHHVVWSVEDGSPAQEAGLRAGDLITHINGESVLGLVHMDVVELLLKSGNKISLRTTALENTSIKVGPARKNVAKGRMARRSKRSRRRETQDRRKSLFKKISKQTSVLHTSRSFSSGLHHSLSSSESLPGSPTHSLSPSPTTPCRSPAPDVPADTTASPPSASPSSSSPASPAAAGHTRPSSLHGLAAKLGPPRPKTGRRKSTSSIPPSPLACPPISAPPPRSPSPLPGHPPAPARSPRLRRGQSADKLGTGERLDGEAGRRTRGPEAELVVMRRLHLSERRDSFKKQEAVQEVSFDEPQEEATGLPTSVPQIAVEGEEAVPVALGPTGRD

| Compound | inhibition [1] [%] | inhibition [2] [%] | inhibition [3] [%] | inhibition [4] [%] | inhibition [5] [%] | inhibition [6] [%] | inhibition [7] [%] | inhibition [8] [%] | inhibition [9] [%] |
| --- | --- | --- | --- | --- | --- | --- | --- | --- | --- |
| CC(C)(NC(=O)c1ccc2nc(N[C@H]3CC[C@H](O)CC3)c3nccn3c2c1)c1ccccc1 | < 35 | < 35 | < 35 | < 35 | 99.3 | < 35 | < 35 | < 35 | < 35 |
| O=C(NC1(Cc2ccc(F)cc2)CC1)c1ccc2nc(N[C@H]3CC[C@H](O)CC3)c3nccn3c2c1 | < 35 | < 35 | < 35 | < 35 | < 35 | < 35 | < 35 | < 35 | < 35 |
| O=C(N[C@H](CO)c1ccccc1)c1ccc2nc(N[C@H]3CC[C@H](O)CC3)c3nccn3c2c1 | < 35 | < 35 | < 35 | < 35 | 97.9 | < 35 | < 35 | < 35 | < 35 |
| C[C@H](NC(=O)c1ccc2nc(N[C@H]3CC[C@H](O)CC3)c3nccn3c2c1)c1ccccc1 | < 35 | < 35 | < 35 | < 35 | 76.3 | < 35 | < 35 | < 35 | < 35 |
| O=C(NC1(c2ccc(F)cc2)CC1)c1ccc2nc(N[C@H]3CC[C@H](O)CC3)c3nccn3c2c1 | < 35 | < 35 | < 35 | < 35 | 97.6 | < 35 | < 35 | < 35 | < 35 |
| C[C@@H](NC(=O)c1ccc2nc(N[C@H]3CC[C@H](O)CC3)c3nccn3c2c1)c1ccccc1 | < 35 | < 35 | < 35 | < 35 | 97 | < 35 | 38.4 | < 35 | < 35 |
| CC[C@@H](NC(=O)c1ccc2nc(N[C@H]3CC[C@H](O)CC3)c3nccn3c2c1)c1ccccc1 | < 35 | < 35 | < 35 | < 35 | 96.2 | < 35 | < 35 | < 35 | < 35 |
| CCC[C@@H](NC(=O)c1ccc2nc(N[C@H]3CC[C@H](O)CC3)c3nccn3c2c1)c1ccccc1 | < 35 | < 35 | < 35 | < 35 | 90.2 | < 35 | < 35 | < 35 | < 35 |
| O=C(NC1(c2ccccc2)CCC1)c1ccc2nc(N[C@H]3CC[C@H](O)CC3)c3nccn3c2c1 | < 35 | < 35 | < 35 | < 35 | 99.2 | < 35 | < 35 | < 35 | < 35 |
| O=C(O)c1ccc2nc(N[C@H]3CC[C@H](O)CC3)c3nccn3c2c1 | < 35 | < 35 | < 35 | < 35 | < 35 | < 35 | 37.5 | < 35 | < 35 |
| NC(=O)c1ccc2nc(N[C@H]3CC[C@H](O)CC3)c3nccn3c2c1 | < 35 | < 35 | < 35 | < 35 | < 35 | < 35 | < 35 | < 35 | < 35 |
| O=C(NC1(c2ccccc2)CC1)c1ccc2nc(N[C@H]3CC[C@H](O)CC3)c3nccn3c2c1 | < 35 | < 35 | < 35 | < 35 | 98.9 | < 35 | < 35 | < 35 | < 35 |

From ChEMBL document CHEMBL2417377, “Hit-to-lead optimization and kinase selectivity of imidazo[1,2-a]quinoxalin-4-amine derived JNK1 inhibitors” (Bioorg Med Chem Lett, 2013)
